Laboratory results: patent publication US20020128434A1, “Alpha-(1,3-dicarbonylenol ether) methyl ketones as cysteine protease inhibitors” (priority 1993, published 2002)
≈ marks a conversion by molar mass, not a printed value. Where a name gives a salt, the structure may show the parent alone. Read-outs that look alike come from different tables or passages of the source. Each block holds one compound with its values, some of them ahead of it. *1 amine or outer side, *2 acyl side, *3 side chain or, on linkers, in order; H or OH if unused. Where a SMILES comes first, the peptide text is derived from it. [ ]: non-standard residue; d: D form. The star is where a group is joined. ξ: configuration not given here. hPhe = N[C@@H](CCc1ccccc1)C(=O)O; Morpholide = C1CN(*)CCO1; ξF = NC(Cc1ccccc1)C(=O)O; CO = O=C([*:1])[*:2]; CH2F = FC*

Legend:
[1] = test system: calpain (Calcium Activated Neutral Protease); assay: Calpain inhibition; assay type: biochemical; settings: incubated 30 minutes at 37° C.; tested at 20 μM, 2 μM, 200 nM
Experimental: The percent inhibition of one inhibitor, Acetyl-Leucyl-Leucyl-Phenylalanyl-α-(4-oxy-dihydrofuran-2-one) methyl ketone, on calpain (Calcium Activated Neutral Protease) was determined as follows. A 50 mM Hepes, 10 mM calcium chloride, 5 mM cysteine, 1 mM β-mercaptoethanol, pH 7.5 buffer solution was prepared. The enzyme was activated for 1 minute in the buffer solution at room temperature. Inhibitor was prepared as stock solution in dimethylformamide. Inhibitor and enzyme/buffer were incubated for 30 minutes at 37° C. Final concentrations of inhibitor were 20 μM, 2 μM, and 200 nM. Enzyme activity was followed with 200 μM Boc-Valnyl-Leucyl-Lysine-AFC substrate by the release of free fluorescent detecting group over minutes at 37° C., as compared to the control.

[2] = test system: Pneumocystis carinii; assay: In vitro inhibition of Pneumocystis carinii in culture with human embryonic lung fibroblast monolayers; assay type: cell-based
Experimental: The percent of inhibition is calculated as 100−(the number of P. carinii trophozoites in a treated cell culture/number of trophosites of the control)×100.
Methods. The drugs dissolved in dimethyl sulfoxide were diluted to concentrations of 10 μg/ml for compound 3 and […] for compound 9 in minimum essential medium used for the culture of human embryonic lung fibroblasts. […] Cell cultures in 24-well plates were innoculated with P. carinii trophozoites (final concentration, about 7×10^5 per ml) obtained from infected rat lungs. Each culture plate contained untreated and treated wells. Plates were incubated at 35° C. in a gas mixture of 5% O2, 10% CO2, 85% N2 for up to 7 days. Plates were sampled on days 1, 3, 5 and 7 by removal of 10 μl amounts after agitation of the cultures. The samples were placed on slides in 1-cm^2 areas, fixed in methanol and stained with Giemsa stain; and then they were examined microscopically as unknowns by two individuals. For each parameter there were four wells, making eight values for each parameter. Standard errors range from 3-13%. Cultures were spiked with fresh drugs on days 2, 4 and 6.

[3] = molecular target: T1, Cathepsin B, purified from human liver (Homo sapiens, UniProt P07858); assay: In vitro evaluation of inhibitors with purified cathepsin B; assay type: biochemical; settings: purified cathepsin B; read-out: IC50 Cat B
T1 construct: Cathepsin B, purified from human liver; purchased Enzyme Systems Products (Dublin, Calif.); host or cells: human liver (tissue-purified)
Experimental: Enzyme: Cathepsin B, purified from human liver, is from Enzyme Systems Products (Dublin, Calif.). The activity is 50 mU per ml at 30° C., in 52 mM sodium phosphate, pH 6.2, 31 mM DTT, 2.1 mM EDTA, with 0.2 mM Z—Arg—Arg-7-amino-4-trifluoromethyl-coumarin as a substrate. Specific activity is 8330 mU per mg protein. (1 mU=1 nmol per min.)
Substrate Boc—Leu—Arg—Arg-7-amino-4-trifluoromethyl-coumarin-2HBr is from Enzyme Systems Products (Dublin, Calif.) and is known to be a specific substrate for cathepsin B. A 20 mM solution is made in DMF and stored at […].
Candidate inhibitors are dissolved in DMF and diluted to 20 mM and stored at […]. Dilutions are made in assay buffer.
The percent inhibition and the inhibitor concentration at which the enzyme is 50% inhibited (IC50) are determined as follows. Five μl of assay buffer (50 mM potassium phosphate pH 6.2, 2 mM EDTA, 5 mM DTT) on ice for 30 min. The inhibition is initiated by the addition of […] inhibitor each to the 480 μl aliquots. The 485 μl aliquot with enzyme is used as a control and thus receives no inhibitor. The enzyme/inhibitor mixtures are incubated 10 min. on ice and assayed for cathepsin B activity as follows:
Cathepsin B assay: To 490 μl of pre-incubated inhibitor/enzyme mixtures in assay buffer in 0.5 ml cuvette at 37° is added 10 μl of the substrate. Final inhibitor concentrations become 2000 nM, 200 nM, and 20 nM for the 200 μM, 20 μM and 2 μM stock concentrations, respectively. Activity is followed by release of free AFC over 5 min. The change in fluorescence is (fluorescence units at t=6)−(fluorescence units at t=1) with a Perkin-Elmer LS-5B spectrofluorometer (ex=400 nm, em=505 nm). The percent inhibition is determined by comparing the change in fluorescence units of the three sample concentrations of inhibited enzyme to the change in fluorescence units of the control enzyme. The percent inhibition is calculated as:
100−(fl. units of sample/fl. units of control×100).
The IC50 is ascertained by plotting percent inhibition vs. inhibitor concentration on the log scale. The IC50 is the concentration of the inhibitor (nM) at which the enzyme is inhibited by 50%.

[4] = test system: T. cruzi; assay: Inhibition of T. cruzi in infected cells, cell line J774; assay type: cell-based; settings: days before cell monolayer is destroyed by infection; 20 μM, daily change of medium plus inhibitor
Experimental: (§1) Survival time is measured in days before the cell monolayer is destroyed by the infection. Irradiated BHK and J774 cells (six well plates) were infected with T. cruzi and simultaneously treated with 20 μM (3 ml total volume) with daily change of culture medium+plus inhibitor).
(§2) Cultivation and preparation of T. cruzi. Cloned and uncloned populations were derived from the strains Brasil, and CA-I and are cryopreserved in liquid nitrogen. Axenically cultured epimastigotes are maintained in exponential growth phase by weekly passage in Brain Heart Infusion-Tryptose medium (BHT media as given in Cazzulo, Cazzulo, Martinez, and Cazzulo, Some Kinetic Properties of a Cysteine Proteinase (Cruzipain) from Trypanosoma Cruzi. 33 Mol. Biochem. Parasitol. 33-42 (1990)), supplemented with […] 10% (v/v) heat inactivated fetal calf serum (FCS). Different host cell lines (J774 mouse macrophage, BHK, etc.) are cultured with RPMI-1640 supplemented with 5% FCS at 37° in a humidified atmosphere containing 5% CO2. Trypomastigotes liberated from the host cells are used to infect new cultures for serial maintenance of the parasite in cell culture. The protocols used for the in vitro assays of cysteine protease inhibitors are essentially as described by Harth, Andrews, Mills, Engel, Smith, and McKerrow, Peptide-Fluoromethyl Ketones Arrest Intracellular Replication and Intercellular Transmission of Trypanosoma Cruzi. 58 Mol. Biochem. Parasitol. 17-24 (1993), with the exception that in some experiments, the host cells are irradiated (2400 RADs) before infection to prevent them from dividing.

[5] = test system: T. cruzi; assay: Inhibition of T. cruzi in infected cells, cell line BHK; assay type: cell-based; settings: days before cell monolayer is destroyed by infection; 20 μM, daily change of medium plus inhibitor
Experimental: as §1, §2

[6] = physchem; settings: 20 °C, water, thermodynamic from solid
[7] = test system: malarial inhibition; assay: Another test of malarial inhibition
[8] = molecular target: T2, Cathepsin H (Homo sapiens, UniProt P09668); assay: Cathepsin H inhibition; assay type: biochemical
T2 sequence (P09668 98-335): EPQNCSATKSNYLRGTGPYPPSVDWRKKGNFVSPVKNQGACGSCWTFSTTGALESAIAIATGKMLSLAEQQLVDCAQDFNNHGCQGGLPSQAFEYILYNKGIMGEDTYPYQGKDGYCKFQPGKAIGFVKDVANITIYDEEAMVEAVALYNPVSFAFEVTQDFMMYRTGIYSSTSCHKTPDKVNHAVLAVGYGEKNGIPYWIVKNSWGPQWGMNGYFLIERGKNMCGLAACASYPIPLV

[9] = not given; remark: listed apart in the source

Compound: CC(=O)N[C@@H](CC(C)C)C(=O)N[C@@H](CC(C)C)C(=O)N[C@@H](Cc1ccccc1)C(=O)COC1=CC(=O)OC1 [Acetyl-Leucyl-Leucyl-Phenylalanyl-α-(4-oxy-dihydrofuran-2-one) methyl ketone]
concentration at which inhibitor showed activity against calpain [1]: less than 2 μM

IC50 [3]: 112 nM
Compound: Cc1cc(OCC(=O)[C@H](CCc2ccccc2)NC(=O)[C@H](Cc2ccccc2)NC(=O)N2CCOCC2)cc(=O)o1 [Compound 3, N-Morpholinecarbonyl-L-phenylalanyl-L-homophenylalanyl-α-(4-oxy-6-methyl-2-pyrone) methyl ketone]
inhibition at 10 µg/mL ([2]; 24 h, Day 1, 10 μg/ml for compound 3, 10 μM/ml for compound 9, read-out: Percent Inhibition, Day 1): 23%
inhibition at 10 µg/mL ([2]; 48 h, Day 2, 10 μg/ml for compound 3, 10 μM/ml for compound 9, read-out: Percent Inhibition, Day 2): 44%
inhibition at 10 µg/mL ([2]; 72 h, Day 3, 10 μg/ml for compound 3, 10 μM/ml for compound 9, read-out: Percent Inhibition, Day 3): 39%
inhibition at 10 µg/mL ([2]; 96 h, Day 4, 10 μg/ml for compound 3, 10 μM/ml for compound 9, read-out: Percent Inhibition, Day 4): 13%

melting point: 115 to 119 °C
IC50 [3]: 45 nM
Compound: O=C(COc1cc(=O)oc2ccccc12)[C@H](CCc1ccccc1)NC(=O)[C@H](Cc1ccccc1)NC(=O)N1CCOCC1 [Compound 6, N-Morpholinecarbonyl-L-phenylalanyl-L-homophenylalanyl-α-(4-oxy-coumarin) methyl ketone]
Survival Time, Cell line J774 [4]: ≥ 16 days
Survival Time, Cell line BHK [5]: ≥ 16 days

melting point: 114 to 116 °C
IC50 [3]: 36 nM
Compound: O=C1OCC(OCC(=O)[C@H](CCc2ccccc2)NC(=O)[C@H](Cc2ccccc2)NC(=O)N2CCOCC2)=C1c1ccccc1 [Compound 9, N-Morpholinecarbonyl-L-phenylalanyl-L-homophenylalanyl-α-(4-oxy-3-phenyl-dihydrofuran-2-one) methyl ketone]
Survival Time, Cell line J774 [4]: 4 days
Survival Time, Cell line BHK [5]: 6 days

melting point: 140 to 145 °C
IC50 [3]: 5 nM
Compound: NCCCC[C@H](NC(=O)[C@H](Cc1ccccc1)NC(=O)N1CCOCC1)C(=O)COC1=C(c2ccccc2)C(=O)OC1 [Compound 11, N-Morpholinecarbonyl-L-phenylalanyl-L-lysyl-α-(4-oxy-3-phenyl-dihydrofuran-2-one) methyl ketone]

solubility [6]: 277 µg/mL (≈ 517 µM)
IC50 [3]: 10 nM
Compound: O=C1C=C(OCC(=O)[C@H](CCc2ccccc2)NC(=O)[C@H](Cc2ccccc2)NC(=O)N2CCOCC2)CO1 [Compound 12, N-Morpholinecarbonyl-L-phenylalanyl-L-homophenylalanyl-α-(4-oxy-dihydrofuran-2-one) methyl ketone]

Compound: CCC1OC(=O)C(OCC(=O)[C@H](CCc2ccccc2)NC(=O)[C@H](Cc2ccccc2)NC(=O)N2CCOCC2)=C1C (stereo partly drawn) [Compound A2, N-Morpholinecarbonyl-L-phenylalanyl-L-homophenylalanyl-α-(3-oxy-5-ethyl-4-methyl 2(5H)furanone) methyl ketone]
malarial inhibition [7]: particularly effective

IC50 [8]: 251 nM
Compound: N[C@@H](CCc1ccccc1)C(=O)COC1=CC(=O)OC1 [L-Homophenyl-α-(4-oxy-dihydrofuran-2-one)methyl ketone hydrochloride]

IC50 [8]: 118 nM
Compound: Cc1cc(OCC(=O)[C@@H](N)CCc2ccccc2)cc(=O)o1 [L-Homophenylalanyl-α-(4-oxy-(6-methyl-2-pyrone)methyl ketone]

Compound: O=C(N[C@@H](CCc1ccccc1)C(=O)CF)C(Cc1ccccc1)NC(=O)N1CCOCC1 (stereo partly shown) [Mu—Phe—HPhe—CH2F, Morpholine-carbonyl-phenylalanyl-homophenylalanyl-fluoromethylketone, reference compound] ({Morpholide-CO}-[ξF]-[hPhe]-CH2F)
Survival Time, Cell line J774 [4]: ≥ 16 days
Survival Time, Cell line BHK [5]: ≥ 16 days
aqueous solubility ([9]; 20° C., distilled and deionized water): 0.140 mg/mL (≈ 307 µM)

Compound: benzoxycarbonyl-phenylalanyl-alanylfluoromethyl ketone [Z—Phe—Ala—CH2F]
aqueous solubility ([9]; 14° C.): 0.045 mg/mL
